In US7671176B2, “Opiate receptor polypeptide” (The Research Foundation of SUNY, priority 2001, dated 2010):

Test system: mu4 opiate receptor mRNA in mononuclear cells
Test: Real-time RT-PCR of mu4 mRNA expression in treated human mononuclear cells
Assay type: cell-based
Settings: SNAP 1 μM
Experimental: Human heparinized whole blood cells obtained from volunteer blood donors (Long Island Blood Services; Melville, N.Y.) were immediately separated using the 1-Step Polymorphs (Accurate Chemical and Scientific Corporation, Westbury, N.Y.) gradient medium. Five mL of the heparinized blood was layered over 3.5 mL of polymorphs in a 14 mL round-bottom tube and centrifuged for 35 minutes at 500×g in a swinging-bucket rotor at 18° C. […] In addition, residual red blood cells were lysed using ACK lysing buffer (Current Protocol in Immunology). […] The cells were then treated with SNAP (1 μM), SNAP plus superoxide dismutase (SOD; 100 units/mL) (SIGMA St. Louis, Mo.), or SOD (100 U/mL), respectively.
After incubation, mononuclear cells were pelleted by centrifugation, and total RNA was isolated with the RNeasy Protect Mini Kit (Qiagen, Stanford, Calif.) following the directions supplied by the manufacturer. RNA was eluted with 50 μL of RNase-free water.
First strand cDNA synthesis was performed using random hexamers (GIBCO, BRL, Gaithesburg, Md.). 3 μg of total RNA isolated from human mononuclear cells were denatured at 95° C. and reverse transcribed at 40° C. for 1 hour using Superscript® II Rnase H-RT (GIBCO BRL, Gaithesburg Md.). Five μL of the RT product was used for the real-time PCR reaction.
Primers and probe specific for the mu4 opiate receptor sequence were designed as follows using the software Primer Express® (Applied Biosystems). […] The Taqman® probe was constructed with the 5′ reporter dye 6-carboxyfluorescein and a 3′ quencher dye 6-carboxy-tetramethyl-rhodoamine. The 2× universal master mix (Applied Biosystems) containing PCR buffer, MgCl2, dNTPs, and the thermal stable AmpliTaq Gold® DNA polymerase was used in the PCR reactions. In addition, 200 μM of reverse and forward primers, 100 μM Taqman® probe, 5 μL of RT product, and Rnase/DNase-free water were added to the master mix to a final volume of 50 μL. […] The PCR results were analyzed with the GeneAmp® 5700 SDS software (Applied Biosystems). […]

SMILES: CC(=O)NC(C(=O)O)C(C)(C)SN=O (racemic) [SNAP, S-nitroso-N-acetyl-DL-penicillamine]
- mu4 mRNA expression (after 6 hours of treatment, p=0.029 vs control): 8±5.6 relative mRNA level
- mu4 mRNA expression (after 24 hours of treatment, n=1): 10.5 relative mRNA level
- mu4 mRNA expression (treated for 30 minutes, SOD 100 units/mL, nontreated cells 1.0): 0.05 relative mRNA level
